Source: publication PMC9979163, “Discovery and functional characterization of N-(thiazol-2-yl)-benzamide analogs as the first class of selective antagonists of the Zinc-Activated Channel (ZAC)” (Biochemical pharmacology, 2021)

How the values were obtained:
urease = tested on: urease; set-up: method as in PMID 30086567; settings: Fig. 10; cited from earlier work
[1] = molecular target: metabotropic glutamate receptor 1; set-up: method as in PMID 19674894; settings: Fig. 10; cited from earlier work
glucokinase = molecular target: glucokinase; set-up: method as in PMID 19282189; settings: Fig. 10; cited from earlier work
Adenosine A2A receptor = molecular target: Adenosine A2A receptor; set-up: method as in PMID 21210664; settings: Fig. 10; cited from earlier work
stearoyl-CoA desaturase = molecular target: stearoyl-CoA desaturase; set-up: method as in PMID 19541482; settings: Fig. 10; cited from earlier work
ZAC [2] = molecular target: T1, ZAC (Homo sapiens, UniProt Q401N2); experiment: FMP assay at ZAC-HEK293 cells; type: cell-based; settings: ZAC-HEK293 cells, FMP assay, n = 4
T1 sequence (Q401N2 26-412): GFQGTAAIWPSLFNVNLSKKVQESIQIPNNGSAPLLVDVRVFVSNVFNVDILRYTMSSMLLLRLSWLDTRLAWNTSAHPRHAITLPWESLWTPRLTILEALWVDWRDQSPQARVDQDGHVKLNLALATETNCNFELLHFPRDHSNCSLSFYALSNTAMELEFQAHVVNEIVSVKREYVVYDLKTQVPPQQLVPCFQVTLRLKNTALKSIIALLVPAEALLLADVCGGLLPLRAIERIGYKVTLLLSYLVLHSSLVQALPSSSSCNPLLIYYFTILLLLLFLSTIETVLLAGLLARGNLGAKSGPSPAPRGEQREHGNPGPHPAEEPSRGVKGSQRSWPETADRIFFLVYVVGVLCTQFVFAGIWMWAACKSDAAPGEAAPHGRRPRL
Experimental: The screening of the 1,680 compounds in the compound library for antagonist activity at the ZAC-HEK293 cell line was performed in the FMP assay essentially as previously described. The day before the assay, cells were split into poly-D-lysine-coated black 96-well plates with clear bottoms (BD Biosciences, Palo Alto, CA) (6 × 10^4 cells/well). The following day, the culture medium was aspirated and the wells were washed once with 100 μl assay buffer (140 mM NaCl, 4.7 mM KCl, 2.5 mM CaCl2, 1.2 mM MgCl2, 11 mM HEPES, 10 mM D-glucose, pH 7.4), after which 100 μl assay buffer supplemented with FMP dye (0.5 mg/ml) and the various test compounds were added to the wells. The plate was then incubated at 37 °C for 30 min and assayed in a NOVOStar plate reader (BMG Labtechnologies, Offenburg, Germany) measuring emission at 560 nm caused by excitation at 530 nm before and up to 1 min after the addition of 33 μl of agonist solution. In the screening, the 1,680 compounds in the compound library were tested at assay concentrations in the 10–30 μM range, using Cu^2+ as agonist at an assay concentration of 200 μM.
Data from the FMP assay was analysed using KaleidaGraph 3.08 (Synergy Software, Reading, PA). Concentration-response curves for Cu^2+ and concentration-inhibition curves for compound 1 were constructed based on the difference in the relative fluorescence units (RFU) between the maximal fluorescence recorded before and after application of Cu^2+. The data were fitted to sigmoidal curves with variable slopes using nonlinear regression, and EC50 (Cu^2+) and IC50 (compound 1) values were derived from these equations.

h5-HT3A = molecular target: T2, h5-HT3A (Homo sapiens, UniProt P46098); experiment: FMP assay at h5-HT3A-HEK293 cells; type: cell-based; settings: concentrations up to 300 μM, data not shown
T2 construct: expressed in transfected cells
T2 sequence (P46098 24-478): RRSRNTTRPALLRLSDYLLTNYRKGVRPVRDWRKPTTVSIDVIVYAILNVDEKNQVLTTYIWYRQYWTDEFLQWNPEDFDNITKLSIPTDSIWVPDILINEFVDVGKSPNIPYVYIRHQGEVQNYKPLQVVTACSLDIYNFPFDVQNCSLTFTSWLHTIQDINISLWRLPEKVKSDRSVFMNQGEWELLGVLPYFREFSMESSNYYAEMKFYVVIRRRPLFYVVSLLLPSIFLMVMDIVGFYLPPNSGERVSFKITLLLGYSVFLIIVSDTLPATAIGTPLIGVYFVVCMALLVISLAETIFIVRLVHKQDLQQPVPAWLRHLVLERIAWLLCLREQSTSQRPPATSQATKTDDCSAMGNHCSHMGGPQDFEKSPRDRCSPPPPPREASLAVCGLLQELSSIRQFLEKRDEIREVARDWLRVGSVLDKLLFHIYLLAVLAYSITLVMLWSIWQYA

HEK293 cells = experiment: FMP assay at HEK293 cells; type: cell-based; settings: concentrations up to 300 μM, data not shown
Hec1/Nek2 interaction = tested on: Hec1/Nek2 interaction; set-up: method as in PMID 18922912; settings: Fig. 10; cited from earlier work
Adenosine A1 receptor = molecular target: Adenosine A1 receptor; set-up: method as in PMID 11262085; settings: Fig. 10; cited from earlier work
necroptosis = molecular target: necroptosis; set-up: method as in PMID 30400632; settings: Fig. 10; cited from earlier work
ZAC [3] = molecular target: T1, ZAC; settings: Zn2+ (1 mM) as agonist, TEVC; cited from earlier work

## O=C(Nc1nc(Cc2nnc(SCc3ccc(F)cc3)o2)cs1)c1ccccc1 [Compound 7h]
urease
  IC50: 2200 nM

## CC(C)Nc1cc(-c2csc(N(C)C(=O)c3ccc(F)cc3)n2)ncn1 [Compound 27]
[1]
  IC50: 5.1 nM

## Cc1csc(NC(=O)c2cc(Oc3ccc(S(C)(=O)=O)cc3)cc(OC(C)C)c2)n1 [Compound 27e]
glucokinase
  EC50: 330 nM

## CC(C)(C)CC(=O)Nc1c(F)cc(C(=O)Nc2nccs2)cc1F [Compound 28]
Adenosine A2A receptor
  Ki: 5.9 nM

## CCNc1ccc(C(=O)Nc2ncc(Cc3cccc(C(F)(F)F)c3)s2)cc1OCCO [Compound 37c]
stearoyl-CoA desaturase
  IC50: 0.04 nM

## [Cl][Cu][Cl] [Cu^2+, CuCl2]
ZAC [2]
  pEC50 ± S.E.M. (agonist): 4.59 ± 0.17
ZAC [2]; read-out: EC50 (agonist)
  EC50: 26 µM
h5-HT3A
  Agonist response: did not evoke any responses
HEK293 cells
  Agonist response: did not evoke any responses

## Cc1ccc(-c2csc(NC(=O)c3ccccc3)n2)c(C)c1 [INH1]
Hec1/Nek2 interaction
  IC50: in uM range

## COc1ccc(C(=O)Nc2nc(-c3ccccc3)cs2)cc1 [LUF5433]
Adenosine A1 receptor
  IC50: 32 nM

## CCn1c(SCc2ccc(C(=O)Nc3nccs3)cc2)nnc1-c1ccc(N)cc1 [NTB451]
necroptosis
  Ki: 7.9 µM

## COc1cc2c3cc1Oc1cc(ccc1O)C[C@@H]1c4c(cc(OC)c(O)c4Oc4ccc(cc4)C[C@@H]3N(C)CC2)CC[N+]1(C)C [TC, tubocurarine]
ZAC [3]
  Fitted inhibition range: ~ 94%
